Where two headings read alike, the source gives them in different places.
How the values were obtained:
α2 I E318W [1] = type: binding, human
α2 I E318W [2] = type: binding, human; remark: listed apart in the source
Description: (§1) I domain adhesion was determined colorimetrically using a solid-phase binding assay, modified slightly from our previous studies, [16], [32] and specified below. Wells were coated using 1 μg peptide in 100 μl 0.01 M acetic acid for 1 h at 22°C on Immulon-2 HB 96-well plates (Thermo Life Sciences, Basingstoke, UK), and blocked for 1 h with 200 μl of TBS containing 50 mg/ml bovine serum albumin). Wells were washed four times with 200 μl of the adhesion buffer (TBS with 1 mg/ml bovine serum albumin) before adding 100 μl of adhesion buffer containing 10 μg/ml of recombinant GST I domains in the presence of either 2 mM MgCl2 or EDTA for 1 h at room temperature. Wells were washed five times with 200 μl of adhesion buffer containing MgCl2, before adding 100 μl of adhesion buffer containing Amersham anti-GST-HRP conjugate (RPN1236; GE Healthcare) at 1:10,000 dilution for 1 h at room temperature. After washing, colour was developed using an ImmunoPure TMB Substrate Kit (Pierce) according to the manufacturer’s instructions. Replacing Mg^2+ with EDTA abolished binding (not shown). Data for short peptide binding were compared using 2-way ANOVA to establish the overall effect of the E318W mutation, and using repeated measures 1-way ANOVA for specific comparisons (Prism 5.0 for Mac, GraphPad).

wild-type α2 I domain [3] = assay: Solid-phase binding assay of GST I domain to immobilised triple-helical peptides; set-up: species or system human; conditions: 1 μg peptide coated per well; 10 μg/ml GST I domain, 2 mM MgCl2; six paired experiments in triplicate (Fig. 2A)
Description: as §1

[4] = target: collagen-like triple-helical peptide [GPO]2GFOGER[GPO]3; assay: SEC; analytical SEC on Superdex 200 10/300 GL at 4°C, 100 mM Tris-HCl pH 7.5, 150 mM NaCl, 2 mM MgCl2; I domain 1 mg/ml with a greater than 2-fold molar excess of peptide, 30 min at 4°C before injection
α2 I E318W [5] = assay: Analytical size exclusion chromatography of I domain-collagen peptide complexes; type: binding, human
Description: The lyophilised triple-helical peptides (GFOGER, GMOGER, GAOGER) were dissolved in 500 μl of 1 mg/ml stock solutions of either wild-type or E318W α2 I domains. The amount of peptide was chosen so as to yield a greater than 2-fold molar excess of peptide. After incubation for 30 min at 4°C, the solutions were injected onto a Superdex 200 10/300 GL column and run at 4°C at a flow rate of 0.5 ml/min in SEC buffer.

wild-type α2 I domain [6] = assay: as above; type: binding, human
Description: After incubation for 30 min at 4°C, the solutions were injected onto a Superdex 200 10/300 GL column and run at 4°C at a flow rate of 0.5 ml/min in SEC buffer.

[7] = target: T1, collagen-like triple-helical peptide [GPO]2GMOGER[GPO]3 (O denotes hydroxyproline; C-terminal amide); assay: SEC; analytical SEC on Superdex 200 10/300 GL at 4°C, 100 mM Tris-HCl pH 7.5, 150 mM NaCl, 2 mM MgCl2; I domain 1 mg/ml with a greater than 2-fold molar excess of peptide, 30 min at 4°C before injection; conditions: both partners purified
T1 chain: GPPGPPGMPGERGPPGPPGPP

[8] = 1 μg peptide coated per well, 10 μg/ml GST I domain, 2 mM MgCl2, six paired experiments in triplicate (Fig. 2A)
[9] = solid-phase binding, shorter triple-helical peptides, A450, six paired experiments (Fig. 2A), ANOVA p<0.001
[10] = SEC, Superdex 200, 4°C, peptide in >2-fold molar excess (Fig. 3)
[11] = SEC, Superdex 200, 4°C, peptide in >2-fold molar excess, 1 mg/ml I domain, 30 min incubation at 4°C, 100 mM Tris-HCl pH 7.5, 150 mM NaCl, 2 mM MgCl2

## GAOGER
α2 I E318W [1]
  Change in affinity of E318W compared with wild-type, increasing dose of I domain: substantially greater increase in affinity

## GASGER
α2 I E318W [2]
  Change in binding of α2 I E318W compared with wild-type α2 I domain: several-fold increases

## GFOGEK
α2 I E318W [2]
  Binding of α2 I E318W to shorter triple-helical Gxx'GEx'' peptides (A450): bound well
wild-type α2 I domain [3]
  Binding of wild-type α2 I domain to shorter triple-helical Gxx'GEx'' peptides (A450): bound well

## GFOGER [positive control]
α2 I E318W [2]; [8]
  Binding of α2 I E318W to shorter triple-helical Gxx'GEx'' peptides (A450): bound well
wild-type α2 I domain [3]
  Binding of wild-type α2 I domain to shorter triple-helical Gxx'GEx'' peptides (A450): bound well
α2 I E318W [1]; increasing concentrations of I domain on peptide coatings, single-site binding curves, 3 replicates in a single experiment (Fig. 2B)
  Change in affinity of E318W compared with wild-type, increasing dose of I domain: modest increase in affinity

## GFPGER
α2 I E318W [2]
  Binding of α2 I E318W to shorter triple-helical Gxx'GEx'' peptides (A450): bound well
α2 I E318W [2]; [9]
  Change in binding of α2 I E318W compared with wild-type α2 I domain: equally well
wild-type α2 I domain [3]
  Binding of wild-type α2 I domain to shorter triple-helical Gxx'GEx'' peptides (A450): bound well

## GLKGEN
α2 I E318W [2]
  Change in binding of α2 I E318W compared with wild-type α2 I domain: several-fold increases

## GLOGEA
α2 I E318W [2]
  Binding of α2 I E318W to shorter triple-helical Gxx'GEx'' peptides (A450): bound well
wild-type α2 I domain [3]
  Binding of wild-type α2 I domain to shorter triple-helical Gxx'GEx'' peptides (A450): bound well

## GLOGEN
α2 I E318W [2]; [8]
  Binding of α2 I E318W to shorter triple-helical Gxx'GEx'' peptides (A450): bound well
wild-type α2 I domain [3]
  Binding of wild-type α2 I domain to shorter triple-helical Gxx'GEx'' peptides (A450): bound well

## GLOGER
α2 I E318W [2]; [8]
  Binding of α2 I E318W to shorter triple-helical Gxx'GEx'' peptides (A450): bound well
wild-type α2 I domain [3]
  Binding of wild-type α2 I domain to shorter triple-helical Gxx'GEx'' peptides (A450): bound well

## GMOGER
α2 I E318W [2]
  Change in binding of α2 I E318W compared with wild-type α2 I domain: doubling in amplitude
α2 I E318W [2]; [9]
  Change in binding of α2 I E318W compared with wild-type α2 I domain: substantial increase
α2 I E318W [1]
  Change in affinity of E318W compared with wild-type, increasing dose of I domain: substantially greater increase in affinity

## GQRGER
α2 I E318W [2]
  Change in binding of α2 I E318W compared with wild-type α2 I domain: several-fold increases

## GROGER
α2 I E318W [2]
  Binding of α2 I E318W to shorter triple-helical Gxx'GEx'' peptides (A450): bound well
wild-type α2 I domain [3]
  Binding of wild-type α2 I domain to shorter triple-helical Gxx'GEx'' peptides (A450): bound well

## GVOGEA [shorter triple-helical peptide with the α1β1-specific motif GVOGEA]
α2 I E318W [2]; [8]
  Binding of α2 I E318W to shorter triple-helical Gxx'GEx'' peptides (A450): not recognised
wild-type α2 I domain [3]
  Binding of wild-type α2 I domain to shorter triple-helical Gxx'GEx'' peptides (A450): not recognised

## His-tagged integrin α2 I domain E318W (for SEC and crystallisation) (from UniProt P17301 171-368) (domain or fragment)
[4]
  stoichiometry N (I domains per triple-helical peptide): 2

## [GPO]2GFOGER[GPO]3 [GFOGER peptide, short homotrimeric collagen-like peptide [GPO]2GFOGER[GPO]3 used for SEC and crystallisation]
α2 I E318W [5]; [10]
  Reduction in elution volume of α2 I E318W on addition of peptide: 1.4 mL
α2 I E318W [5]; [11]
  Complex formation with α2 I E318W in solution (I domain:peptide stoichiometry): appeared to form a 2:1 complex
α2 I E318W [5]; Superdex 200, 4°C (Fig. 3), calculated mass 56.1 kDa
  Apparent mass of the α2 I E318W-peptide complex from calibration of the SEC column: 44 kDa
wild-type α2 I domain [6]; [10]
  Reduction in elution volume of wild-type α2 I domain on addition of peptide: 0.6 mL
wild-type α2 I domain [6]; [11]
  Complex formation with wild-type α2 I in solution (I domain:peptide stoichiometry): formed a 1:1 complex
wild-type α2 I domain [6]; Superdex 200, 4°C (Fig. 3)
  Apparent mass of the wild-type α2 I-peptide complex derived from the calibration of the SEC column: 31 kDa

## wild-type integrin α2 I domain used in analytical SEC (domain or fragment)
[4]
  stoichiometry N (I domain per triple-helical peptide): 1

B1: His-tagged integrin α2 I domain E318W (for SEC and crystallisation) (domain or fragment, human)
chain: SLIDVVVVCDESNSIYPWDAVKNFLEKFVQGLDIGPTKTQVGLIQYANNPRVVFNLNTYKTKEEMIVATSQTSQYGGDLTNTFGAIQYARKYAYSAASGGRRSATKVMVVVTDGESHDGSMLKAVIDQCNHDNILRFGIAVLGYLNRNALDTKNLIKEIKAIASIPTERYFFNVSDWAALLEKAGTLGEQIFSIEGTV
notes: also called α2 I E318W; E318W I domain; source: E. coli Origami, purified (HisTrap FF, SEC on Superdex 75)
[7]
  stoichiometry N: 1 I domain per triple-helical peptide

From article PMC3726769 (PLoS ONE, 2013)
